The term IC50 denotes the point on the concentration scale where inhibition reaches its midpoint.

Here are results for 2 molecules from patent US12268667B2, “JAK1 pathway inhibitors for the treatment of prurigo nodularis” (Incyte Corporation, priority 2021, dated 2025).

Some results are limits rather than exact numbers.

Assay [1] has as its target human JAK1 (a.a. 837-1142) (Homo sapiens, UniProt P23458). Kind of assay: In vitro JAK kinase assay (HTRF), JAK1. It is filed as biochemical. The note with it: 1 mM ATP.
Description: (§1) The catalytic activity of JAK1, JAK2 or JAK3 are assayed by measuring the phosphorylation of a biotinylated peptide. The phosphorylated peptide was detected by homogenous time resolved fluorescence (HTRF). […] Reactions are carried out at room temperature for 1 hour and then stopped with 20 μL 45 mM EDTA, 300 nM SA-APC, 6 nM Eu-Py20 in assay buffer (Perkin Elmer, Boston, MA). Binding to the Europium labeled antibody takes place for 40 minutes and HTRF signal was measured on a Fusion plate reader (Perkin Elmer, Boston, MA).
Assay [2] deals with human JAK2 (a.a. 828-1132) (Homo sapiens (Human), UniProt O60674). Kind of assay: In vitro JAK kinase assay (HTRF), JAK2. Conditions: JAK2/JAK1 IC50 ratio at 1 mM ATP. It is filed as biochemical. For orientation: TR-FRET usually uses a lanthanide donor and a delayed reading to cut background.
Description: as §1
The test system of assay [3] is IL-31. Conditions: cited from earlier work.
The subject of assay [4] is PN lesional skin. The note with it: PN skin cultured with nemolizumab; cited from earlier work.

Chain of human JAK2 (a.a. 828-1132) (O60674 828-1132): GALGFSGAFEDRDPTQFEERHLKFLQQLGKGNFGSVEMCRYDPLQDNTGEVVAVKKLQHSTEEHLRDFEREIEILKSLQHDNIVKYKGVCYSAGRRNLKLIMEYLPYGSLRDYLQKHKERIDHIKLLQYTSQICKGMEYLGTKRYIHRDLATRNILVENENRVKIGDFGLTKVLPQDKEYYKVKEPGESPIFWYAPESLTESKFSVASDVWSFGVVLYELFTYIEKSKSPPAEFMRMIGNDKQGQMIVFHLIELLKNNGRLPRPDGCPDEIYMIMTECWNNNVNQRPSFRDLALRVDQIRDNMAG

With `N#CC[C@]1(n2cc(-c3ncnc4[nH]ccc34)cn2)C[C@H](N2CCC(Oc3cc(CN4CCC[C@@H]4CO)cc(C(F)(F)F)n3)CC2)C1` [Compound 13, {trans-3-(4-{[4-{[(2R)-2-(hydroxymethyl)pyrrolidin-1-yl]methyl}-6-(trifluoromethyl)pyridin-2-yl]oxy}piperidin-1-yl)-1-[4-(7H-pyrrolo[2,3-d]pyrimidin-4-yl)-1H-pyrazol-1-yl]cyclobutyl}acetonitrile], in assay [1], the IC50 was below 10 nM. Also, the JAK2/JAK1 in assay [2] is listed as above 10.

B1: nemolizumab (antibody, chains of the INN, looked up)
heavy: QVQLVQSGAEVKKPGASVKVSCKASGYTFTGYIMNWVRQAPGQGLEWMGLINPYNGGTDYNPQFQDRVTITADKSTSTAYMELSSLRSEDTAVYYCARDGYDDGPYTLETWGQGTLVTVSSASTKGPSVFPLAPSSKSTSGGTAALGCLVKDYFPEPVTVSWNSGALTSGVHTFPAVLQSSGLYSLSSVVTVPSSNFGTQTYTCNVDHKPSNTKVDKTVERKSCVECPPCPAPPVAGPSVFLFPPKPKDTLMISRTPEVTCVVVDVSQEDPEVQFNWYVDGVEVHNAKTKPREEQFNSTFRVVSVLTVVHQDWLNGKEYKCKVSNKGLPAPIEKTISKTKGQPREPQVYTLPPSQEEMTKNQVSLTCLVKGFYPSDIAVEWESNGQPENNYKTTPPMLDSDGSFFLYSKLTVDKSRWQEGNVFSCSVMHEALHNHYTQKSLSLSP
light: DIQMTQSPSSLSASVGDRVTITCQASEDIYSFVAWYQQKPGKAPKLLIYNAQTEAQGVPSRFSGSGSGTDFTLTISSLQPEDFATYYCQHHYDSPLTFGGGTKVEIKRTVAAPSVFIFPPSDEQLKSGTASVVCLLNNFYPREAKVQWKVDNALQSGNSQESVTEQDSKDSTYSLSSTLTLSKADYEKHKVYACEVTHQGLSSPVTKSFNRGEC
Take B1: the “effect on pruritus and skin lesions in PN patients” value in assay [3] is “improvement in pruritus and skin lesions”. In assay [4], the “IL-17 levels in lesional skin” value is listed as “reduction in IL-17 levels”.
